# Measured values reported in US20180280480A1, “COMPOSITIONS AND PEPTIDES HAVING DUAL GLP-1R AND GLP-2R AGONIST ACTIVITY” (priority 2014, published 2018).
# Marks after values point to notes of the source that are not given here.
# Tested on: diabetic db/db (BKS.Cg-m+/+Leprdb/J) male mice
# Test: Intestinal volume and surface area (stereology) in diabetic db/db mice
# Format: in vivo
# Details: for Large intestine surface area / Large intestine volume / Small intestine surface area / Small intestine volume: Day 58, mean ± S.E.M.
# Experimental: A total of forty-six (46) diabetic db/db (BKS.Cg-m+/+Leprdb/J) male mice, 5 weeks old at arrival, was obtained from Janvier (France). […] They were housed in groups of n=2 in a light-, temperature-, and humidity-controlled room (12-hour light: 12-hour dark cycle, lights On/Off at 04.00/16.00 h; 22±1° C.; 50±10% relative humidity). During the habituation period animals was accustomed to the experimental paradigm.
# Baseline, free fed blood glucose samples were obtained bi-weekly prior to study start (blood was collected from the tail vein) in order to screen for the diabetic state. The 40 animals closest to the mean BG/BW value at day −3 were randomized into 4 groups (n=10/group; the remaining 6 animals was be discarded from the main study): Group 1: Vehicle, BID, SC. […] During day 0-58 of the experiment, animals received a subcutaneous dosing twice daily at 06.00-08.00 hours and again between 02.00-04.00 hours. Dose volume was 5 ml/kg.
# At the end of the study period mice were terminated by decapitation under isoflurane anaesthesia. The entire intestine was dissected out and divided into small and large which was then measured in length.
substance,measurement,setting,value
R^1-HGDGSFTSELSTYLDALAARDFIAWLIQTKITDR^2 [SEQ ID NO 6],effect on small intestine volume and surface area,"8 weeks of treatment, 50 and 250 nmol/kg",marked increase in small intestine volume as well as surface area
same,Large intestine surface area,50 nmol/kg BID SC,3.6 ± 1.2 cm^2
same,Large intestine volume,50 nmol/kg BID SC,274.2 ± 7.0 mm^3
same,Small intestine surface area,50 nmol/kg BID SC,348.9 ± 10.8*** cm^2
same,Small intestine volume,50 nmol/kg BID SC,2097 ± 72.7*** mm^3
same,Large intestine surface area,250 nmol/kg BID SC,18.6 ± 1.9 cm^2
same,Large intestine volume,250 nmol/kg BID SC,288.2 ± 23.7 mm^3
same,Small intestine surface area,250 nmol/kg BID SC,344.0 ± 20.8*** cm^2
same,Small intestine volume,250 nmol/kg BID SC,2043 ± 62.3*** mm^3
